What all share (format): functional
Experiment [1] concerns Staphylococcus aureus. Kind of experiment: Antibacterial activity against Staphylococcus aureus ATCC 25923 by microbroth dilution method. On the technique in general: In broth dilution the organism is exposed to a series of concentrations in liquid medium.
Experiment [2] relates to Staphylococcus aureus. Kind of experiment: Antibacterial activity against Staphylococcus aureus ATCC 29213 by microbroth dilution method.
Experiment [3] concerns Staphylococcus aureus. The experiment in a line: Antibacterial activity against drug-resistant Staphylococcus aureus by microbroth dilution method.
In experiment [4] the test system is Staphylococcus aureus. The experiment in a line: Antibacterial activity against methicillin-resistant Staphylococcus aureus N315 by microbroth dilution method.
The next experiment deals with Enterococcus faecalis. Kind of experiment: Antibacterial activity against drug-resistant Enterococcus faecalis by microbroth dilution method.
Experiment [5] relates to Candida albicans. The experiment in a line: Antifungal activity against Candida albicans ATCC 90023.
Experiment [6] relates to Candida albicans. The experiment in a line: Antifungal activity against drug-resistant Candida albicans.
The next experiment concerns Candida parapsilosis. The experiment in a line: Antifungal activity against Candida parapsilosis ATCC 22019. Conditions: Lodderomyces parapsilosis.
The next experiment relates to Candida tropicalis. Kind of experiment: Antifungal activity against drug-resistant Candida tropicalis.
The test system of another experiment is Aspergillus fumigatus. Kind of experiment: Antifungal activity against Aspergillus fumigatus.
Experiment [7] deals with Escherichia coli. Kind of experiment: Antibacterial activity against Escherichia coli ATCC 25922 by microbroth dilution method.
Experiment [8] relates to Pseudomonas aeruginosa. Kind of experiment: Antibacterial activity against Pseudomonas aeruginosa ATCC 27853 by microbroth dilution method.
Experiment [9] relates to Escherichia coli. The experiment in a line: Antibacterial activity against drug-resistant Escherichia coli by microbroth dilution method.
The test system of experiment [10] is Pseudomonas aeruginosa. Kind of experiment: Antibacterial activity against Pseudomonas aeruginosa by microbroth dilution method.
The test system of a further experiment is Klebsiella pneumoniae. Kind of experiment: Antibacterial activity against Klebsiella pneumoniae by microbroth dilution method.
In a further experiment the test system is Acinetobacter baumannii. Kind of experiment: Antibacterial activity against Acinetobacter baumannii by microbroth dilution method.

For 7 compounds, MIC results are on record in ChEMBL document CHEMBL5584255, “Synthesis and antibacterial medicinal evaluation of carbothioamido hydrazonyl thiazolylquinolone with multitargeting antimicrobial potential to combat increasingly global resistance” (Eur J Med Chem, 2024).

Converted amounts (≈) assume the structure as drawn.

The term MIC denotes the smallest concentration in the dilution series that meets the test's criterion for growth inhibition. Read a low MIC as greater potency. For the compound `Nc1nc(-c2c[nH]c3cc(F)c(F)cc3c2=O)cs1`, the minimum inhibitory concentration (MIC) came to 459 µM (≈ 128 µg/mL) in the experiment with Staphylococcus aureus [1]; 459 µM (≈ 128 µg/mL) against Staphylococcus aureus [2]; 459 µM (≈ 128 µg/mL) in the experiment with Staphylococcus aureus [3]; 459 µM (≈ 128 µg/mL) against Staphylococcus aureus [4]; 918 µM (≈ 256 µg/mL) with Enterococcus faecalis; 229 µM (≈ 64 µg/mL) in the experiment with Candida albicans [5]. Moreover, the MIC in the experiment on Candida albicans [6] worked out at 229 µM (≈ 64 µg/mL); against Candida parapsilosis, 459 µM (≈ 128 µg/mL); against Candida tropicalis it was 459 µM (≈ 128 µg/mL); in the experiment on Aspergillus fumigatus, 229 µM (≈ 64 µg/mL); with Escherichia coli [7] it was 459 µM (≈ 128 µg/mL); in the experiment with Pseudomonas aeruginosa [8], 459 µM (≈ 128 µg/mL). For the same compound, the MIC against Escherichia coli [9] was found to be 459 µM (≈ 128 µg/mL); with Pseudomonas aeruginosa [10], 459 µM (≈ 128 µg/mL); with Klebsiella pneumoniae, 918 µM (≈ 256 µg/mL); with Acinetobacter baumannii, 918 µM (≈ 256 µg/mL).

On to `CC(=O)Cn1cc(-c2csc(C)n2)c(=O)c2cc(F)ccc21`, for which the MIC against Staphylococcus aureus [1] is 1620 µM (≈ 512 µg/mL); with Staphylococcus aureus [2], 405 µM (≈ 128 µg/mL); against Staphylococcus aureus [3] it was 1620 µM (≈ 512 µg/mL); in the experiment with Staphylococcus aureus [4] it was 1620 µM (≈ 512 µg/mL); with Enterococcus faecalis, 1620 µM (≈ 512 µg/mL); against Candida albicans [5] it was 405 µM (≈ 128 µg/mL). The minimal inhibitory concentration (MIC) in the experiment with Candida albicans [6] is 810 µM (≈ 256 µg/mL); in the experiment with Candida parapsilosis it was 1620 µM (≈ 512 µg/mL); against Candida tropicalis it was 810 µM (≈ 256 µg/mL); against Aspergillus fumigatus it was 810 µM (≈ 256 µg/mL); in the experiment on Escherichia coli [7] it was 1620 µM (≈ 512 µg/mL); with Pseudomonas aeruginosa [8] it was 810 µM (≈ 256 µg/mL). The MIC with Escherichia coli [9] was 1620 µM (≈ 512 µg/mL); in the experiment on Pseudomonas aeruginosa [10] it was 810 µM (≈ 256 µg/mL); against Klebsiella pneumoniae it was 810 µM (≈ 256 µg/mL); against Acinetobacter baumannii it was 1620 µM (≈ 512 µg/mL).

For `C/C(Cn1cc(-c2csc(C)n2)c(=O)c2cccc(F)c21)=N\NC(N)=S`, the MIC came to 658 µM (≈ 256 µg/mL) in the experiment on Staphylococcus aureus [1]; 329 µM (≈ 128 µg/mL) with Staphylococcus aureus [2]; 1320 µM (≈ 513 µg/mL) against Staphylococcus aureus [3]; 1320 µM (≈ 513 µg/mL) with Staphylococcus aureus [4]; 658 µM (≈ 256 µg/mL) in the experiment with Enterococcus faecalis; 1320 µM (≈ 513 µg/mL) in the experiment with Candida albicans [5]. The MIC against Candida albicans [6] turned out to be 1320 µM (≈ 513 µg/mL); in the experiment with Candida parapsilosis it was 658 µM (≈ 256 µg/mL); against Candida tropicalis, 329 µM (≈ 128 µg/mL); against Aspergillus fumigatus, 658 µM (≈ 256 µg/mL); against Escherichia coli [7] it was 329 µM (≈ 128 µg/mL); against Pseudomonas aeruginosa [8], 329 µM (≈ 128 µg/mL). Moreover, the MIC against Escherichia coli [9] came to 329 µM (≈ 128 µg/mL); against Pseudomonas aeruginosa [10], 329 µM (≈ 128 µg/mL); in the experiment with Klebsiella pneumoniae, 1320 µM (≈ 513 µg/mL); in the experiment on Acinetobacter baumannii it was 329 µM (≈ 128 µg/mL).

For `Cc1nc(-c2c[nH]c3cc(Cl)c(F)cc3c2=O)cs1`, the MIC with Staphylococcus aureus [1] stood at 435 µM (≈ 128 µg/mL); with Staphylococcus aureus [2] it was 871 µM (≈ 257 µg/mL); against Staphylococcus aureus [3], 871 µM (≈ 257 µg/mL); in the experiment on Staphylococcus aureus [4], 435 µM (≈ 128 µg/mL); against Enterococcus faecalis it was 871 µM (≈ 257 µg/mL); in the experiment with Candida albicans [5], 109 µM (≈ 32.1 µg/mL). Further, the MIC stood at 435 µM (≈ 128 µg/mL) in the experiment with Candida albicans [6]; 218 µM (≈ 64.3 µg/mL) in the experiment on Candida parapsilosis; 871 µM (≈ 257 µg/mL) in the experiment with Candida tropicalis; 435 µM (≈ 128 µg/mL) with Aspergillus fumigatus; 435 µM (≈ 128 µg/mL) against Escherichia coli [7]; 435 µM (≈ 128 µg/mL) against Pseudomonas aeruginosa [8]. Also, the MIC in the experiment with Escherichia coli [9] amounted to 1740 µM (≈ 513 µg/mL); against Pseudomonas aeruginosa [10] it was 871 µM (≈ 257 µg/mL); against Klebsiella pneumoniae, 871 µM (≈ 257 µg/mL); against Acinetobacter baumannii, 435 µM (≈ 128 µg/mL).

With `Nc1nc(-c2c[nH]c3c(F)cccc3c2=O)cs1`, the MIC against Staphylococcus aureus [1] worked out at 981 µM (≈ 256 µg/mL); against Staphylococcus aureus [2] it was 981 µM (≈ 256 µg/mL); in the experiment on Staphylococcus aureus [3], 981 µM (≈ 256 µg/mL); in the experiment with Staphylococcus aureus [4], 981 µM (≈ 256 µg/mL); with Enterococcus faecalis it was 490 µM (≈ 128 µg/mL); with Candida albicans [5] it was 490 µM (≈ 128 µg/mL). The MIC against Candida albicans [6] amounted to 981 µM (≈ 256 µg/mL); in the experiment with Candida parapsilosis it was 245 µM (≈ 64 µg/mL); in the experiment on Candida tropicalis it was 981 µM (≈ 256 µg/mL); against Aspergillus fumigatus, 490 µM (≈ 128 µg/mL); in the experiment on Escherichia coli [7], 981 µM (≈ 256 µg/mL); in the experiment on Pseudomonas aeruginosa [8], 981 µM (≈ 256 µg/mL). The MIC in the experiment on Escherichia coli [9] was found to be 981 µM (≈ 256 µg/mL); against Pseudomonas aeruginosa [10], 981 µM (≈ 256 µg/mL); against Klebsiella pneumoniae it was 981 µM (≈ 256 µg/mL); with Acinetobacter baumannii, 490 µM (≈ 128 µg/mL).

Turning to `Cc1nc(-c2c[nH]c3ccc(F)cc3c2=O)cs1`, the MIC stood at 1970 µM (≈ 513 µg/mL) against Staphylococcus aureus [1]; 985 µM (≈ 256 µg/mL) in the experiment with Staphylococcus aureus [2]; 1970 µM (≈ 513 µg/mL) in the experiment with Staphylococcus aureus [3]; 1970 µM (≈ 513 µg/mL) against Staphylococcus aureus [4]; 985 µM (≈ 256 µg/mL) with Enterococcus faecalis; 492 µM (≈ 128 µg/mL) in the experiment on Candida albicans [5]. For the same compound, the MIC in the experiment on Candida albicans [6] came out at 985 µM (≈ 256 µg/mL); against Candida parapsilosis it was 492 µM (≈ 128 µg/mL); with Candida tropicalis, 985 µM (≈ 256 µg/mL); against Aspergillus fumigatus, 985 µM (≈ 256 µg/mL); against Escherichia coli [7] it was 492 µM (≈ 128 µg/mL); against Pseudomonas aeruginosa [8], 492 µM (≈ 128 µg/mL). For the same compound, the MIC was determined as 1970 µM (≈ 513 µg/mL) in the experiment with Escherichia coli [9], 985 µM (≈ 256 µg/mL) in the experiment with Pseudomonas aeruginosa [10], 1970 µM (≈ 513 µg/mL) against Klebsiella pneumoniae and 492 µM (≈ 128 µg/mL) with Acinetobacter baumannii.

Turning to `Nc1nc(-c2c[nH]c3ccc(F)cc3c2=O)cs1`, the MIC against Staphylococcus aureus [1] was 490 µM (≈ 128 µg/mL); against Staphylococcus aureus [2] it was 490 µM (≈ 128 µg/mL); with Staphylococcus aureus [3] it was 490 µM (≈ 128 µg/mL); in the experiment on Staphylococcus aureus [4], 490 µM (≈ 128 µg/mL); in the experiment on Enterococcus faecalis it was 490 µM (≈ 128 µg/mL); with Candida albicans [5], 61 µM (≈ 15.9 µg/mL). In addition, the MIC was found to be 245 µM (≈ 64 µg/mL) in the experiment with Candida albicans [6]; 245 µM (≈ 64 µg/mL) against Candida parapsilosis; 490 µM (≈ 128 µg/mL) with Candida tropicalis; 245 µM (≈ 64 µg/mL) with Aspergillus fumigatus; 490 µM (≈ 128 µg/mL) in the experiment with Escherichia coli [7]; 245 µM (≈ 64 µg/mL) in the experiment with Pseudomonas aeruginosa [8]. For the same compound, the MIC was found to be 490 µM (≈ 128 µg/mL) in the experiment with Escherichia coli [9], 981 µM (≈ 256 µg/mL) with Pseudomonas aeruginosa [10], 490 µM (≈ 128 µg/mL) against Klebsiella pneumoniae and 490 µM (≈ 128 µg/mL) against Acinetobacter baumannii.
